Measurements reported in patent US8933230B2, “Phosphorus-containing group-substituted quinoline, its preparation process, medical composition containing the compounds and application” (priority 2011, dated 2015).

Tests used:
Assay in all cases: KinomeScan kinase panel
Assay type in all cases: binding
[1] = target: T1, AMPK-alpha1 (Homo sapiens, UniProt Q13131)
T1 construct: purchased DiscoveRx Corporation (KinomeScan)
Procedure, shortened: (§1)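 Read-out is inhibition at one dose. Compound concentration was 1000 nM, run through the 442-kinase KinomeScan platform.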

[2] = target: T2, ARK5 (Homo sapiens, UniProt O60285)
T2 construct: purchased DiscoveRx Corporation (KinomeScan)
Procedure, shortened: as §1

[3] = target: T3, BIKE (Homo sapiens, UniProt Q9NSY1)
T3 construct: purchased DiscoveRx Corporation (KinomeScan)
Procedure, shortened: as §1

[4] = target: T4, CDK4-cyclinD1 (Homo sapiens, UniProt P11802)
T4 construct: purchased DiscoveRx Corporation (KinomeScan)
Procedure, shortened: as §1

[5] = target: T5, CDKL1 (Homo sapiens, UniProt Q00532)
T5 construct: purchased DiscoveRx Corporation (KinomeScan)
Procedure, shortened: as §1

[6] = target: T6, CSNK1G2 (Homo sapiens, UniProt P78368)
T6 construct: purchased DiscoveRx Corporation (KinomeScan)
Procedure, shortened: as §1

[7] = target: T7, CSNK2A1 (Homo sapiens, UniProt P68400)
T7 construct: purchased DiscoveRx Corporation (KinomeScan)
Procedure, shortened: as §1

[8] = target: T8, DDR2 (Homo sapiens, UniProt Q16832)
T8 construct: purchased DiscoveRx Corporation (KinomeScan)
Procedure, shortened: as §1

[9] = target: T9, DMPK (Homo sapiens, UniProt Q09013)
T9 construct: purchased DiscoveRx Corporation (KinomeScan)
Procedure, shortened: as §1

[10] = target: T10, EGFR(E746-A750del) (Homo sapiens, UniProt P00533, DEL746-750)
T10 construct: purchased DiscoveRx Corporation (KinomeScan)
Procedure, shortened: as §1

[11] = target: T11, EPHB2 (Homo sapiens, UniProt P29323)
T11 construct: purchased DiscoveRx Corporation (KinomeScan)
Procedure, shortened: as §1

[12] = target: T12, ERK5 (Homo sapiens, UniProt Q13164)
T12 construct: purchased DiscoveRx Corporation (KinomeScan)
Procedure, shortened: as §1

[13] = target: T13, FRK (Homo sapiens, UniProt P42685)
T13 construct: purchased DiscoveRx Corporation (KinomeScan)
Procedure, shortened: as §1

[14] = target: T14, JAK2(JH1domain-catalytic) (Homo sapiens, UniProt O60674)
T14 construct: JAK2(JH1domain-catalytic); purchased DiscoveRx Corporation (KinomeScan)
Procedure, shortened: as §1

[15] = target: T15, JNK1 (Homo sapiens, UniProt P45983)
T15 construct: purchased DiscoveRx Corporation (KinomeScan)
Procedure, shortened: as §1

[16] = target: T16, LZK (Homo sapiens, UniProt O43283)
T16 construct: purchased DiscoveRx Corporation (KinomeScan)
Procedure, shortened: as §1

[17] = target: T17, MAP4K5 (Homo sapiens, UniProt Q9Y4K4)
T17 construct: purchased DiscoveRx Corporation (KinomeScan)
Procedure, shortened: as §1

[18] = target: T18, MAPKAPK2 (Homo sapiens, UniProt P49137)
T18 construct: purchased DiscoveRx Corporation (KinomeScan)
Procedure, shortened: as §1

[19] = target: T19, MARK4 (Homo sapiens, UniProt Q96L34)
T19 construct: purchased DiscoveRx Corporation (KinomeScan)
Procedure, shortened: as §1

[20] = target: T20, MKNK2 (Homo sapiens, UniProt Q9HBH9)
T20 construct: purchased DiscoveRx Corporation (KinomeScan)
Procedure, shortened: as §1

[21] = target: T21, MRCKB (Homo sapiens, UniProt Q9Y5S2)
T21 construct: purchased DiscoveRx Corporation (KinomeScan)
Procedure, shortened: as §1

[22] = target: T22, MUSK (Homo sapiens, UniProt O15146)
T22 construct: purchased DiscoveRx Corporation (KinomeScan)
Procedure, shortened: as §1

[23] = target: T23, PAK2 (Homo sapiens, UniProt Q13177)
T23 construct: purchased DiscoveRx Corporation (KinomeScan panel)
Procedure, shortened: as §1

[24] = target: T24, PIK3CA(E545K) (Homo sapiens, UniProt P42336, E545K)
T24 construct: purchased DiscoveRx Corporation (KinomeScan)
Procedure, shortened: as §1

[25] = target: T25, RET (M918T) (Homo sapiens, UniProt P07949, M918T)
T25 construct: purchased DiscoveRx Corporation
Procedure, shortened: as §1

[26] = target: T26, RET (V804M) (Homo sapiens, UniProt P07949, V804M)
T26 construct: purchased DiscoveRx Corporation
Procedure, shortened: as §1

[27] = target: T27, RPS6KA5(kin.Dom.1-N-termimal) (Homo sapiens, UniProt O75582)
T27 construct: kin.Dom.1; purchased DiscoveRx Corporation
Procedure, shortened: as §1

[28] = target: T28, RSK1(Kin.Dom.2-C-terminal) (Homo sapiens, UniProt Q15418)
T28 construct: Kin.Dom.2; purchased DiscoveRx Corporation
Procedure, shortened: as §1

[29] = target: T29, RSK2(Kin.Dom.1-N-terminal) (Homo sapiens, UniProt P51812)
T29 construct: Kin.Dom.1; purchased DiscoveRx Corporation (KinomeScan)
Procedure, shortened: as §1

[30] = target: T30, S6K1 (Homo sapiens, UniProt P23443)
T30 construct: purchased DiscoveRx Corporation (KinomeScan)
Procedure, shortened: as §1

[31] = target: T31, STK16 (Homo sapiens, UniProt O75716)
T31 construct: purchased DiscoveRx Corporation (KinomeScan)
Procedure, shortened: as §1

[32] = target: T32, TAK1 (Homo sapiens, UniProt O43318)
T32 construct: purchased DiscoveRx Corporation (KinomeScan)
Procedure, shortened: as §1

[33] = target: T33, TEC (Homo sapiens, UniProt P42680)
T33 construct: purchased DiscoveRx Corporation (KinomeScan)
Procedure, shortened: as §1

[34] = target: T34, TRAK (Homo sapiens, UniProt P04629)
T34 construct: purchased DiscoveRx Corporation (KinomeScan)
Procedure, shortened: as §1

T26 sequence (P07949 29-1114 V804M): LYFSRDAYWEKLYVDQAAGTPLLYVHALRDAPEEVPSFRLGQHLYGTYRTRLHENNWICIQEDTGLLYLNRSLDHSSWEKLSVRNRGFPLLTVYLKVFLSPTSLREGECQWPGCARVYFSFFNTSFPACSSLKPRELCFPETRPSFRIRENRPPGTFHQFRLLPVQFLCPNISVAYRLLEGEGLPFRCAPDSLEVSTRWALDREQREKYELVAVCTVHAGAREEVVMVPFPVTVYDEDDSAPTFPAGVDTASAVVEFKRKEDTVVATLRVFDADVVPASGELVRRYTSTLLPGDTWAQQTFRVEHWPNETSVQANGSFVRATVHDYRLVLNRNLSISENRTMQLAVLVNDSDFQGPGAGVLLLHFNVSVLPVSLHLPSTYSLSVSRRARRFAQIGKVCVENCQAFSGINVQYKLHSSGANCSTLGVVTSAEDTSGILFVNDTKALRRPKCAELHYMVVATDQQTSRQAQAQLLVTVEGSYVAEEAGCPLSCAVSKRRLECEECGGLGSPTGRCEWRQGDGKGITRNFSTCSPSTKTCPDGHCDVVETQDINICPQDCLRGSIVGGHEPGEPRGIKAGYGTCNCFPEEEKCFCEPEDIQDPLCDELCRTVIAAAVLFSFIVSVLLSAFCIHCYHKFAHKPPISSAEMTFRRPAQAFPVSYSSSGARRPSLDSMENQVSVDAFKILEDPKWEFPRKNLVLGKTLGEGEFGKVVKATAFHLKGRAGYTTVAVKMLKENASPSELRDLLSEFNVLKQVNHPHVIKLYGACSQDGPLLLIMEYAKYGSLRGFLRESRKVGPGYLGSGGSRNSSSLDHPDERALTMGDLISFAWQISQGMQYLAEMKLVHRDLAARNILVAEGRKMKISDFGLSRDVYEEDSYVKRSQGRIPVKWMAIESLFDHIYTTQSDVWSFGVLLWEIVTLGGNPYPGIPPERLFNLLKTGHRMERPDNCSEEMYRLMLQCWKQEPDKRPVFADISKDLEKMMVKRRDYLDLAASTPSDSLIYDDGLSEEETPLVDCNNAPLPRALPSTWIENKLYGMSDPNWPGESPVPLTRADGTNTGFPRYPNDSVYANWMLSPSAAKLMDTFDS
T24 sequence (P42336 whole entry E545K): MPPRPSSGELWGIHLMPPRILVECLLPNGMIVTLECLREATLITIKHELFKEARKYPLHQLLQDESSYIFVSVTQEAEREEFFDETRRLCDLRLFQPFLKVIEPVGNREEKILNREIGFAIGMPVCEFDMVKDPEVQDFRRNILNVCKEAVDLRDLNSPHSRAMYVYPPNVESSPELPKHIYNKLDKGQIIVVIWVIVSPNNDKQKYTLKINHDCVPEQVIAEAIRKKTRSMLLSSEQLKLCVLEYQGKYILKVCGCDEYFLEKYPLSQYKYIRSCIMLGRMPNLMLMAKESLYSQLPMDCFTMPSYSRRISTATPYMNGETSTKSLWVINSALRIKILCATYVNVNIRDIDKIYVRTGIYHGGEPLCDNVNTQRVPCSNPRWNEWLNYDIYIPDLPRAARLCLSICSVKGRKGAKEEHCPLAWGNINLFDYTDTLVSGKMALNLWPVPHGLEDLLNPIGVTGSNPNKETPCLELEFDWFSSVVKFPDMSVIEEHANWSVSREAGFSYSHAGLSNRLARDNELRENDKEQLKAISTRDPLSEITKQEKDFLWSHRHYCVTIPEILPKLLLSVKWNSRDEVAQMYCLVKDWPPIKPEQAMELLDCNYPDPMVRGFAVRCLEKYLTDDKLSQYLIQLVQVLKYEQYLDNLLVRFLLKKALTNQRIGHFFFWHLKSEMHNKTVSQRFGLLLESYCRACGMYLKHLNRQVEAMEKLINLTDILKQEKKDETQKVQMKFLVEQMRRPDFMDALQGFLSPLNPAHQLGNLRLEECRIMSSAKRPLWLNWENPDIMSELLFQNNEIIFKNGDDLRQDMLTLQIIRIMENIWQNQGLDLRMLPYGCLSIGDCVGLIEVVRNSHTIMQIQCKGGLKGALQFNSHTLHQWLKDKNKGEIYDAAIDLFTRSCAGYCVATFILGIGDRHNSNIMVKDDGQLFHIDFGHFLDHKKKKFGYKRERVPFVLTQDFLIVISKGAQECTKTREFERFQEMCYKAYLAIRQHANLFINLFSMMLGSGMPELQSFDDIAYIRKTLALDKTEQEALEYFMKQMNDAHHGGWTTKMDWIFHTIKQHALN
T18 sequence (P49137 whole entry): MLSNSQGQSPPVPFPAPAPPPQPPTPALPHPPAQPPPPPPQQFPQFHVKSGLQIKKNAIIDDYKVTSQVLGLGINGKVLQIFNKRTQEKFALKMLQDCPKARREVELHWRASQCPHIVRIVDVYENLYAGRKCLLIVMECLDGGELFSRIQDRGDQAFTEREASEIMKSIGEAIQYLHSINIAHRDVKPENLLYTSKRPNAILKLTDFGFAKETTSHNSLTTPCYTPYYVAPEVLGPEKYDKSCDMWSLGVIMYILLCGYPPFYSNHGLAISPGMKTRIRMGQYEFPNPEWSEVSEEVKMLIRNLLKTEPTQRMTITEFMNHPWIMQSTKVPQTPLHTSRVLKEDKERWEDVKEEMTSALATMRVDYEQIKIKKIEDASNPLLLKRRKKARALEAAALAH
T2 sequence (O60285 whole entry): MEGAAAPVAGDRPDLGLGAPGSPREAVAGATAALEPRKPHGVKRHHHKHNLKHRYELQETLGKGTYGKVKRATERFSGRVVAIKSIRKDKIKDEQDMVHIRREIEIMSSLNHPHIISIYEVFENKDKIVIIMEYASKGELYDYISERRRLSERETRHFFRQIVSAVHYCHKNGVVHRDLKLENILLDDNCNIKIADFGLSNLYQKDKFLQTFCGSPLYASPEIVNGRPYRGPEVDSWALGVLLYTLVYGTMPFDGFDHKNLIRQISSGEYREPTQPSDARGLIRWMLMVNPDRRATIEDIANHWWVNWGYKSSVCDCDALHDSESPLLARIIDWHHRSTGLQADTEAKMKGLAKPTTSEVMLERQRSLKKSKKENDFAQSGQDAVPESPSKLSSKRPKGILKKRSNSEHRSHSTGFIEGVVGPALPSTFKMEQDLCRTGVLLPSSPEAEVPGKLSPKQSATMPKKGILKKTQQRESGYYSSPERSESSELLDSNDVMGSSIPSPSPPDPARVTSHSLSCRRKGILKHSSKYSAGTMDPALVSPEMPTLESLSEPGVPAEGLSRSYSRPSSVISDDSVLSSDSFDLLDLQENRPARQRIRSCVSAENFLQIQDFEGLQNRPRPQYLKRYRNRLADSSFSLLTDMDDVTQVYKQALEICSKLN
T12 sequence (Q13164 whole entry): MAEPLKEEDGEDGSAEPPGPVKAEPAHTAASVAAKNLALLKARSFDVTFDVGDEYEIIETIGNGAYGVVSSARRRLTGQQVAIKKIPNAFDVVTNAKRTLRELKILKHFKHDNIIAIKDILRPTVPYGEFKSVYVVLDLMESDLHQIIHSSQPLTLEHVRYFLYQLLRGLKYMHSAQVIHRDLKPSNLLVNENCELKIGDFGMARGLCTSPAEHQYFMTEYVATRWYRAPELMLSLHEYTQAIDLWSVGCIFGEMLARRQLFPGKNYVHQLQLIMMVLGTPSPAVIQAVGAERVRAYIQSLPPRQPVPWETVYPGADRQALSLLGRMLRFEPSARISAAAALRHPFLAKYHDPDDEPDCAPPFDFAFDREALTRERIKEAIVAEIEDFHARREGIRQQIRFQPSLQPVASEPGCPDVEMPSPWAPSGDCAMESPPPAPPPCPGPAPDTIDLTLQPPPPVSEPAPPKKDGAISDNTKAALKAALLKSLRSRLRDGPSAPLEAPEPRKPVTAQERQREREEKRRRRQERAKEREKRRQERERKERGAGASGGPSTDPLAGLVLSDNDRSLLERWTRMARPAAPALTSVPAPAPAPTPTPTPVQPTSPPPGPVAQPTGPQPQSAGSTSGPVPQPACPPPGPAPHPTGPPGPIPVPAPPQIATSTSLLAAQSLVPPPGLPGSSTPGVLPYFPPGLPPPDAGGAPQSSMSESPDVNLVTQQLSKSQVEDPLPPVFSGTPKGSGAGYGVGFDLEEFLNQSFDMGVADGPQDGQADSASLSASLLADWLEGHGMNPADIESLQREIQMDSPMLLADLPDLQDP
T27 sequence (O75582 49-318 limits assumed): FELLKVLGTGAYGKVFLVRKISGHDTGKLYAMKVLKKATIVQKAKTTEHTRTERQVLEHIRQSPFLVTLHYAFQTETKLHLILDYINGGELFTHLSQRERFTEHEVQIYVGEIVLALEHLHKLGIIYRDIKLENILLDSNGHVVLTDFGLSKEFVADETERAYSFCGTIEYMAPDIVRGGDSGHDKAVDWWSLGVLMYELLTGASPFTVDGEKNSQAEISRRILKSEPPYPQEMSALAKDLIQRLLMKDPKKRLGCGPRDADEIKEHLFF
T15 sequence (P45983 whole entry): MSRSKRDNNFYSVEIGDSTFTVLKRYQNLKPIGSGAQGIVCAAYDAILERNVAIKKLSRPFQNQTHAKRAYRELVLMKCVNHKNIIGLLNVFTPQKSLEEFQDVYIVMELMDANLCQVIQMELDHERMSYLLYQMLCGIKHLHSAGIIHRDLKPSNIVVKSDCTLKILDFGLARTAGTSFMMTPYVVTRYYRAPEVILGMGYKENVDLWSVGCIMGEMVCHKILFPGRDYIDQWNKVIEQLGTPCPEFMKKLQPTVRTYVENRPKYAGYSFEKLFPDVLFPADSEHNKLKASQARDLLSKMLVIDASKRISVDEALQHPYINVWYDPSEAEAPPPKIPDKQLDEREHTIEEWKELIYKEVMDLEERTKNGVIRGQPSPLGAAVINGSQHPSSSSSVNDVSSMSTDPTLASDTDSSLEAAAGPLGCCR
T28 sequence (Q15418 418-675 limits assumed): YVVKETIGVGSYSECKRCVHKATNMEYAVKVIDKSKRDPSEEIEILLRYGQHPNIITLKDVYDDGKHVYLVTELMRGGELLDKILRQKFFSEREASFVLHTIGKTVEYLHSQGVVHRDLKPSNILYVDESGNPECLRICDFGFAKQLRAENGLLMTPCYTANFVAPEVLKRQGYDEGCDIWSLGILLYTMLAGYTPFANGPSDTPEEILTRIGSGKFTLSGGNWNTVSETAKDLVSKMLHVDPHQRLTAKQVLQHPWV
T25 sequence (P07949 29-1114 M918T): as the sequence (P07949 29-1114 V804M) above, with M776V, M890T counted along it

`CCOP(=O)(CN1CCC(COc2cc3nccc(Oc4ccc(NC(=O)C5(C(=O)Nc6ccc(F)cc6)CC5)cc4F)c3cc2OC)CC1)OCC` [Example 10, N1-[4-[[7-[[1-(diethoxyphosphorylmethyl)-4-piperidinyl]methoxyl]-6-methoxyl-4-quinolyl]oxyl]-3-fluorophenyl]-N1′-(4-fluorophenyl)cyclopropane-1,1-dicarboxamide] was tested, and the “% Ctrl@1000 nM” value [1] was 100 % Ctrl, the “% Ctrl@1000 nM” value [2] was 100 % Ctrl and the “% Ctrl@1000 nM” value [3] was 100 % Ctrl. The “% Ctrl@1000 nM” value [4] was 100 % Ctrl, the “% Ctrl@1000 nM” value [5] was 100 % Ctrl and the “% Ctrl@1000 nM” value [6] was 100 % Ctrl. The “% Ctrl@1000 nM” value [7] was 100 % Ctrl, the “% Ctrl@1000 nM” value [8] was 7.8 % Ctrl and the “% Ctrl@1000 nM” value [9] was 85 % Ctrl. For the same molecule, the “% Ctrl@1000 nM” value [10] was 92 % Ctrl, the “% Ctrl@1000 nM” value [11] was 2.8 % Ctrl and the “% Ctrl@1000 nM” value [12] was 100 % Ctrl. For the same molecule, the “% Ctrl@1000 nM” value [13] was 8.8 % Ctrl, the “% Ctrl@1000 nM” value [14] was 100 % Ctrl and the “% Ctrl@1000 nM” value [15] was 80 % Ctrl. For the same molecule, the “% Ctrl@1000 nM” value [16] was 47 % Ctrl, the “% Ctrl@1000 nM” value [17] was 2.8 % Ctrl and the “% Ctrl@1000 nM” value [18] was 100 % Ctrl. The “% Ctrl@1000 nM” value [19] was 100 % Ctrl, the “% Ctrl@1000 nM” value [20] was 0.05 % Ctrl and the “% Ctrl@1000 nM” value [21] was 100 % Ctrl. The “% Ctrl@1000 nM” value [22] was 13 % Ctrl, the “% Ctrl@1000 nM” value [23] was 54 % Ctrl and the “% Ctrl@1000 nM” value [24] was 100 % Ctrl. The “% Ctrl@1000 nM” value [25] was 0.05 % Ctrl, the “% Ctrl@1000 nM” value [26] was 0.6 % Ctrl and the “% Ctrl@1000 nM” value [27] was 100 % Ctrl. For the same molecule, the “% Ctrl@1000 nM” value [28] was 100 % Ctrl, the “% Ctrl@1000 nM” value [29] was 100 % Ctrl and the “% Ctrl@1000 nM” value [30] was 89 % Ctrl. The “% Ctrl@1000 nM” value [31] was 77 % Ctrl, the “% Ctrl@1000 nM” value [32] was 75 % Ctrl and the “% Ctrl@1000 nM” value [33] was 100 % Ctrl. For the same molecule, the “% Ctrl@1000 nM” value [34] was 1.8 % Ctrl.
